PubChem BioAssay AID1919014 (Molecular Pharmacology Branch, DTP, NCI, 2023)

System: NCI-H1341 complex spheroids, percent test/control
Assay: Anticancer human tumor NCI-H1341 cell line growth inhibition [AhR];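 also: spheroids exposed to agents for seven days before readout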
Settings: for IC50: curve of first compound; for viability, T/C: stronger effect = lower value
Outline: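 Spheroids combined tumor cells with HUVEC endothelial cells and human MSCs as stroma. AhR antagonists were paired with standard or investigational drugs, each dosed in half-log steps down from near clinical Cmax, or from 10 microM where Cmax was unknown.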

[1] = second compound 0.1 µM, first compound 0.0316 µM
[2] = second compound 0.1 µM, first compound 0.1 µM
[3] = second compound 0.1 µM, first compound 0.316 µM
[4] = second compound 0.1 µM, first compound 1 µM
[5] = second compound 0.1 µM, first compound 3.16 µM
[6] = second compound 0.1 µM, first compound 10 µM
[7] = second compound 0.316 µM, first compound 0.0316 µM
[8] = second compound 0.316 µM, first compound 0.1 µM
[9] = second compound 0.316 µM, first compound 0.316 µM
[10] = second compound 0.316 µM, first compound 1 µM
[11] = second compound 0.316 µM, first compound 3.16 µM
[12] = second compound 0.316 µM, first compound 10 µM
[13] = second compound 1 µM, first compound 0.0316 µM
[14] = second compound 1 µM, first compound 0.1 µM
[15] = second compound 1 µM, first compound 0.316 µM
[16] = second compound 1 µM, first compound 1 µM
[17] = second compound 1 µM, first compound 3.16 µM
[18] = second compound 1 µM, first compound 10 µM
[19] = second compound 3.16 µM, first compound 0.0316 µM
[20] = second compound 3.16 µM, first compound 0.1 µM
[21] = second compound 3.16 µM, first compound 0.316 µM
[22] = second compound 3.16 µM, first compound 1 µM
[23] = second compound 3.16 µM, first compound 3.16 µM
[24] = second compound 3.16 µM, first compound 10 µM
[25] = second compound 10 µM, first compound 0.0316 µM
[26] = second compound 10 µM, first compound 0.1 µM
[27] = second compound 10 µM, first compound 0.316 µM
[28] = second compound 10 µM, first compound 1 µM
[29] = second compound 10 µM, first compound 3.16 µM
[30] = second compound 10 µM, first compound 10 µM

Structure (SMILES) | IC50 (second compound 0.1 µM) [µM] | IC50 (second compound 0.316 µM) [µM] | IC50 (second compound 1 µM) [µM] | IC50 (second compound 3.16 µM) [µM] | IC50 (second compound 10 µM) [µM] | viability, T/C [1] [%] | viability, T/C [2] [%] | viability, T/C [3] [%] | viability, T/C [4] [%] | viability, T/C [5] [%] | viability, T/C [6] [%] | viability, T/C [7] [%] | viability, T/C [8] [%] | viability, T/C [9] [%] | viability, T/C [13] [%] | viability, T/C [14] [%] | viability, T/C [19] [%] | viability, T/C [20] [%] | viability, T/C [25] [%] | viability, T/C [26] [%] | also measured
CC(C)c1c(-c2ccccc2)nc2c(C#N)c[nH]n2c1=O + Cc1ccccc1N=Nc1ccc(NC(=O)c2ccnn2C)c(C)c1 | > 10 | > 10 | > 10 | > 10 | < 0.0316 | 84.2 | 87.6 | 86.5 | 87.5 | 81.7 | 96.4 | 99 | 82.8 | 84.2 | 90.1 | 93.8 | 72.2 | 77.1 | 44.9 | 49 | viability, T/C [10]: 92.2%; viability, T/C [11]: 97.5%; viability, T/C [12]: 83.2%; viability, T/C [15]: 74%; viability, T/C [16]: 81.7%; viability, T/C [17]: 83.8%; viability, T/C [18]: 95.7%; viability, T/C [21]: 59.5%; viability, T/C [22]: 72.2%; viability, T/C [23]: 73.3%; viability, T/C [24]: 76.4%; viability, T/C [27]: 52%; viability, T/C [28]: 48.6%; viability, T/C [29]: 59.3%; viability, T/C [30]: 42.9%
COc1ccc([C@@H](O)c2cc(-c3ncnc4cc(N5CCOCC5)ccc34)c(F)cc2Cl)nn1 + Cc1ccccc1N=Nc1ccc(NC(=O)c2ccnn2C)c(C)c1 | 0.903 | 0.791 | 0.631 | 0.461 | < 0.0316 | 98.3 | 91.6 | 70.8 | 51.5 | 19.3 | 8.09 | 87.2 | 68.9 | 70.6 | 75.3 | 67.9 | 73 | 59.9 | 47.2 | 51.8 | viability, T/C [10]: 46.4%; viability, T/C [11]: 19.9%; viability, T/C [12]: 8.42%; viability, T/C [15]: 62.8%; viability, T/C [16]: 42%; viability, T/C [17]: 21.6%; viability, T/C [18]: 8.86%; viability, T/C [21]: 58.7%; viability, T/C [22]: 38.5%; viability, T/C [23]: 18%; viability, T/C [24]: 5.82%; viability, T/C [27]: 39.3%; viability, T/C [28]: 29.2%; viability, T/C [29]: 14.3%; viability, T/C [30]: 7.84%
CC[C@@]1(O)C(=O)OCc2c1cc1n(c2=O)Cc2cc3c(CN(C)C)c(O)ccc3nc2-1 + Cc1cncc(-c2nc(NCCc3c[nH]c4ccccc34)c3ncn(C(C)C)c3n2)c1 | 0.0236 | 0.0214 | 0.0187 | 0.00791 | < 0.000316 | 42.5 | 38.4 | – | – | – | – | 43.5 | 38.2 | – | 40.9 | 32.2 | 37.1 | 35.5 | 19.2 | 15.1 | viability, T/C (second compound 0.1 µM, first compound 0.000316 µM): 90.4%; viability, T/C (second compound 0.1 µM, first compound 0.001 µM): 81.1%; viability, T/C (second compound 0.1 µM, first compound 0.00316 µM): 69.8%; viability, T/C (second compound 0.1 µM, first compound 0.01 µM): 64%; viability, T/C (second compound 0.316 µM, first compound 0.000316 µM): 67.3%; viability, T/C (second compound 0.316 µM, first compound 0.001 µM): 76.8%; viability, T/C (second compound 0.316 µM, first compound 0.00316 µM): 75.5%; viability, T/C (second compound 0.316 µM, first compound 0.01 µM): 63.2%; viability, T/C (second compound 1 µM, first compound 0.000316 µM): 68.8%; viability, T/C (second compound 1 µM, first compound 0.001 µM): 76.1%; viability, T/C (second compound 1 µM, first compound 0.00316 µM): 77.2%; viability, T/C (second compound 1 µM, first compound 0.01 µM): 60.8%; viability, T/C (second compound 3.16 µM, first compound 0.000316 µM): 72.9%; viability, T/C (second compound 3.16 µM, first compound 0.001 µM): 74.8%; viability, T/C (second compound 3.16 µM, first compound 0.00316 µM): 66.6%; viability, T/C (second compound 3.16 µM, first compound 0.01 µM): 45.7%; viability, T/C (second compound 10 µM, first compound 0.000316 µM): 25.8%; viability, T/C (second compound 10 µM, first compound 0.001 µM): 24.8%; viability, T/C (second compound 10 µM, first compound 0.00316 µM): 24.9%; viability, T/C (second compound 10 µM, first compound 0.01 µM): 18%
